Source: the NIST ThermoML archive (doi:10.1021/je100896n)

Conditions: Fluid (supercritical or subcritical phases), Pulse-echo method

C=C(F)C(F)(F)F [2,3,3,3-tetrafluoro-1-propene]
Conditions	speed of sound [m/s]
259.99 K, 4968 kPa	655.69
260 K, 1989 kPa	632.05
260 K, 3044 kPa	640.57
260 K, 4057 kPa	648.57
260 K, 5993 kPa	663.37
285 K, 4006 kPa	546.27
285 K, 5983 kPa	565.09
285.01 K, 2033 kPa	525.9
285.01 K, 3011 kPa	536.18
285.01 K, 5090 kPa	556.71
310 K, 5016 kPa	456.81
310 K, 6057 kPa	469.1
310.01 K, 2013 kPa	415.62
310.01 K, 3042 kPa	430.67
310.01 K, 4019 kPa	444
334.98 K, 5937 kPa	371.38
335 K, 2073 kPa	293.74
335 K, 3039 kPa	317.18
335 K, 3985 kPa	336.92
335 K, 5008 kPa	355.82
359.94 K, 6062 kPa	275.99
359.96 K, 4997 kPa	248.55

F/C=C/C(F)(F)F [trans-1,3,3,3-tetrafluoropropene]
Conditions	speed of sound [m/s]
259.98 K, 1980 kPa	715.11
259.98 K, 3989 kPa	728.84
260 K, 6021 kPa	742.08
260 K, 8007 kPa	754.65
260.01 K, 10070 kPa	767.16
285 K, 1956 kPa	606.38
285 K, 4021 kPa	624.26
285 K, 6056 kPa	640.72
285 K, 8005 kPa	655.64
285 K, 9989 kPa	670.06
310 K, 2063 kPa	497.64
310 K, 3947 kPa	519.14
310 K, 10112 kPa	578.79
310.01 K, 6041 kPa	540.98
310.01 K, 8005 kPa	559.88
335 K, 7985 kPa	465.6
335 K, 10020 kPa	488.5
335.01 K, 2007 kPa	379.56
335.01 K, 4027 kPa	413.08
335.01 K, 5978 kPa	440.56
360 K, 6047 kPa	340.1
360.02 K, 3998 kPa	296.31
360.03 K, 8052 kPa	373.95
360.03 K, 10036 kPa	402.5
